{
  "source": "patent US20100196512A1",
  "about": "“Treatment of Non-Oral Biological Tissue with Chlorine Dioxide” (priority 2009, published 2010)",
  "key": {"[1]": {"tested_on": "mixed PA/MRSA biofilm (total bacteria)", "assay": "Kill of mixed PA/MRSA biofilm grown on ceramic disks by chlorine dioxide solution", "type": "cell-based, Staphylococcus aureus and Pseudomonas aeruginosa", "conditions": "for Log Reduction in Organism Count: MRSA + PA biofilm, total bacteria", "from_the_text": "(§1) Chlorine dioxide treatment involves exposing micro-organisms to chlorine dioxide for a period of time. Treatment conditions, often called the “dose or dosage” of chlorine dioxide, can be determined by calculating the integral of the chlorine dioxide concentration as a function of time, C(t), over the treatment time of use:\n(§2) In systems where the chlorine dioxide concentration is generally constant over the treatment time (e.g., varies by less than ±10% relative) or varies linearly over the treatment time, an average chlorine dioxide concentration may be calculated by averaging the starting and ending concentrations and then multiplying that average chlorine dioxide concentration during an exposure period by the time of exposure (Average Concentration X Time). Dose is commonly given in units of ppm-minutes.\n(§3) A series of experiments were conducted to estimate the dose of chlorine dioxide needed to kill bacterial biofilms consisting of Pseudomonas aeruginosa (PA), methicillin resistant Staphylococcus aureus (MRSA), or a combination of both.\n(§4) Bacterial biofilms were grown for between 7 and 10 days on non-porous ceramic disks in a spinning disk biofilm reactor. The reactors were inoculated with PA, MRSA, or a mixture of MRSA and PA bacteria to produce PA, MRSA, or mixed PA/MRSA biofilms respectively.\n(§5) Chlorine dioxide solutions were produced at different nominal concentrations using ASEPTROL® S-Tab 10 tablets, and the exact concentrations were then measured using a Hach Model 2400 UV/Vis spectrophotometer in accordance with the manufacturer's instructions. Pairs of biofilm-containing disks were immersed for different times in solutions of different chlorine dioxide concentrations, neutralized with dilute sodium thiosulfate solution, and then plated to determine the number of surviving bacteria on each disk. Two untreated disks were also exposed to neutralizing solution and plated to determine the starting bacterial counts. In all tests, the baseline bacterial counts were in the range of 10^7 to 10^7.5 colony-forming units per disk (cfu/disk). A one log reduction refers to reducing the cfu/disk by one order of magnitude, e.g., a reduction from 10^7.1 cfu/disk to 10^6.1 cfu/disk. Accordingly, a substantially complete kill is achieved if the log reduction of bacteria is about 7 to 7.5.\n(§6) The table summarizes the test conditions used in the different experiments, and presents the results in terms of log reduction of the different bacterial organisms. In the case of mixed PA/MRSA biofilms, results are given as total bacteria."}, "[2]": {"tested_on": "Pseudomonas aeruginosa (PA) biofilm", "assay": "Kill of PA biofilm grown on ceramic disks by chlorine dioxide solution", "type": "cell-based", "from_the_text": "as §1, §2, §3, §4, §5, §6"}, "[3]": {"tested_on": "methicillin resistant Staphylococcus aureus (MRSA) biofilm", "assay": "Kill of MRSA biofilm grown on ceramic disks by chlorine dioxide solution", "type": "cell-based", "from_the_text": "as §1, §2, §3, §4, §5, §6"}},
  "data": [
    {"smiles": "[O][Cl+][O-]", "note": "[ClO2, chlorine dioxide]", "values": [
      {"measurement": "Log Reduction in Organism Count", "setting": "[1]; Sample 12, exposure 10.0 minutes, ClO2 52 ppm, 520 ppm-min", "result": 5.5},
      {"measurement": "Log Reduction in Organism Count", "setting": "[1]; Sample 13, exposure 30.0 minutes, ClO2 52 ppm, 1560 ppm-min", "result": 7.4},
      {"measurement": "Log Reduction in Organism Count", "setting": "[1]; Sample 14, exposure 1.0 minutes, ClO2 181 ppm, 181 ppm-min", "result": 5.1},
      {"measurement": "Log Reduction in Organism Count", "setting": "[1]; Sample 15, exposure 5.0 minutes, ClO2 160 ppm, 800 ppm-min", "result": 7.4},
      {"measurement": "Log Reduction in Organism Count", "setting": "[1]; Sample 16, exposure 30.0 minutes, ClO2 160 ppm, 4800 ppm-min", "result": 7.4},
      {"measurement": "dose for a kill of about 5 orders of magnitude (5 log)", "setting": "[1]; mixed PA/MRSA biofilm, see Sample 12", "result": "greater than 200 ppm-min"},
      {"measurement": "Log Reduction in Organism Count", "setting": "[2]; Sample 6, exposure 0.5 minutes, ClO2 200 ppm, 100 ppm-min", "result": 5.9},
      {"measurement": "Log Reduction in Organism Count", "setting": "[2]; Sample 7, exposure 5.0 minutes, ClO2 43 ppm, […]-min", "result": 5.7},
      {"measurement": "Log Reduction in Organism Count", "setting": "[2]; Sample 8, exposure 5.0 minutes, ClO2 187 ppm, 935 ppm-min", "result": 7.5},
      {"measurement": "Log Reduction in Organism Count", "setting": "[2]; Sample 9, exposure 10.0 minutes, ClO2 37 ppm, 370 ppm-min", "result": 7.5},
      {"measurement": "Log Reduction in Organism Count", "setting": "[2]; Sample 10, exposure 50.0 minutes, ClO2 35 ppm, 1750 ppm-min", "result": 7.5},
      {"measurement": "Log Reduction in Organism Count", "setting": "[2]; Sample 11, exposure 50.0 minutes, ClO2 166 ppm, 8300 ppm-min", "result": 7.5},
      {"measurement": "dose for a kill of about 5 orders of magnitude (5 log)", "setting": "[2]; see Sample 7", "result": "greater than 200 ppm-min"},
      {"measurement": "Log Reduction in Organism Count", "setting": "[3]; Sample 1, exposure 1.0 minutes, ClO2 208 ppm, 208 ppm-min", "result": 5.5},
      {"measurement": "Log Reduction in Organism Count", "setting": "[3]; Sample 2, exposure 5.0 minutes, ClO2 204 ppm, 1020 ppm-min", "result": 7.1},
      {"measurement": "Log Reduction in Organism Count", "setting": "[3]; Sample 3 (second line), exposure 30.0 minutes, ClO2 40 ppm, 1200 ppm-min", "result": 5.1},
      {"measurement": "Log Reduction in Organism Count", "setting": "[3]; Sample 3, exposure 10.0 minutes, ClO2 45 ppm, 450 ppm-min", "result": 5.5},
      {"measurement": "Log Reduction in Organism Count", "setting": "[3]; Sample 4, exposure 30.0 minutes, ClO2 175 ppm, 5250 ppm-min", "result": 7.1},
      {"measurement": "dose for a kill of about 5 orders of magnitude (5 log)", "setting": "[3]; see Sample 1", "result": "greater than 200 ppm-min"}
    ]}
  ]
}
